Some results are limits rather than exact numbers.

The test system of the first assay is HCV genotype 1b replicon in Huh 7 cells. The experiment in a line: HCV replicon assay (luciferase readout, 1b_Huh-Luc/Neo-ET cell line). The class given is cell-based. The note with it: Hepatitis C virus, Huh-7, 72 h, read-out: Inhibition of HCV genotype 1b, Table 1, 72 h incubation. Here is the method: Biological activity of the compounds of the invention was determined using an HCV replicon assay. The 1b_Huh-Luc/Neo-ET cell line persistently expressing a bicistronic genotype 1b replicon in Huh 7 cells was obtained from R^eBLikon GMBH. This cell line was used to test compound inhibition using luciferase enzyme activity readout as a measurement of compound inhibition of replicon levels.
On Day 1 (the day after plating), each compound is added in triplicate to the cells. Plates incubated for 72 h prior to running the luciferase assay. Enzyme activity was measured using a Bright-Glo Kit (cat. number E2620) manufactured by Promega Corporation. The following equation was used to generate a percent control value for each compound. % Control=(Average Compound Value/Average Control)*100
The EC50 value was determined using GraphPad Prism and the following equation: Y=Bottom+(Top−Bottom)/(1+10^((Log IC50−X)*HillSlope))
EC50 values of compounds are repeated several times in the replicon assay.
Example compounds of the disclosed invention are illustrated in Tables 1-9 attached as appendices. The tables show inhibitory activity of many of the example compounds with respect to HCV 1b. […] The tables further provide mass spectrometry results for the synthesized example compounds.
(In general: Replicon systems follow genome replication, usually without infectious particles.)
Turning to `O=C(N[C@@H](C(=O)N1CCC[C@H]1C(=O)N[C@H]1CC[C@H](c2ccc(-c3cnc([C@@H]4CCCN4C(=O)[C@H](NC(=O)C4CC4)c4ccccc4)[nH]3)cc2)CC1)c1ccccc1)C1CC1` [compound 350], the EC50 is < 1 nM.

Consider `O=C(N[C@@H](C(=O)N1CCC[C@H]1C(=O)N[C@H]1CC[C@@H](c2ccc(-c3cnc([C@@H]4CCCN4C(=O)[C@H](NC(=O)C4CC4)c4ccccc4)[nH]3)cc2)CC1)c1ccccc1)C1CC1` [compound 351], for which the EC50 is < 1 nM.

Regarding `CC(C)(C)OC(=O)N[C@@H](C(=O)N1CCC[C@H]1c1ncc(-c2ccc(C3CCC(c4cnc([C@@H]5CCCN5C(=O)[C@H](NC(=O)OC(C)(C)C)c5ccccc5)o4)CC3)cc2)[nH]1)c1ccccc1` (some centres unmarked) [compound 352], the EC50 lay within 1 to 9.9 nM.

`O=C(N[C@@H](C(=O)N1CCC[C@H]1c1ncc(-c2ccc(C3CCC(c4cnc([C@@H]5CCCN5C(=O)[C@H](NC(=O)C5CC5)c5ccccc5)o4)CC3)cc2)[nH]1)c1ccccc1)C1CC1` (some centres unmarked) [compound 353]: the EC50 was < 1 nM.

For `O=C(N[C@H]1CC[C@H](c2ccc(-c3cnc([C@@H]4CCCN4C(=O)[C@H](NC(=O)N4CCOCC4)c4ccccc4)[nH]3)cc2)CC1)[C@@H]1CCCN1C(=O)[C@H](NC(=O)N1CCOCC1)c1ccccc1` [compound 354], the EC50 is 1 to 9.9 nM.

For `O=C(N[C@H]1CC[C@@H](c2ccc(-c3cnc([C@@H]4CCCN4C(=O)[C@H](NC(=O)N4CCOCC4)c4ccccc4)[nH]3)cc2)CC1)[C@@H]1CCCN1C(=O)[C@H](NC(=O)N1CCOCC1)c1ccccc1` [compound 355], the EC50 is 1 to 9.9 nM.

For the molecule `CC(C)[C@@H](NC(=O)OC(C)(C)C)C(=O)N1CCC[C@H]1C(=O)N[C@H]1CC[C@H](c2ccc(-c3cnc([C@@H]4CCCN4C(=O)[C@H](NC(=O)OC(C)(C)C)C(C)C)[nH]3)cc2)CC1` [compound 356], the EC50 lay within 10 to 999 nM.

Consider `CC(C)[C@@H](NC(=O)OC(C)(C)C)C(=O)N1CCC[C@H]1C(=O)N[C@H]1CC[C@@H](c2ccc(-c3cnc([C@@H]4CCCN4C(=O)[C@H](NC(=O)OC(C)(C)C)C(C)C)[nH]3)cc2)CC1` [compound 357], for which the EC50 lay in the range of 10 to 999 nM.

With `O=C(N[C@@H](C(=O)N1CCC[C@H]1c1ncc(-c2ccc(C3CCC(c4cnc([C@@H]5CCCN5C(=O)[C@H](NC(=O)N5CCOCC5)c5ccccc5)o4)CC3)cc2)[nH]1)c1ccccc1)N1CCOCC1` (some centres unmarked) [compound 358], the EC50 was < 1 nM.

Turning to `CN1CCN(C(=O)N[C@@H](C(=O)N2CCC[C@H]2c2ncc(-c3ccc(C4CCC(c5cnc([C@@H]6CCCN6C(=O)[C@H](NC(=O)N6CCN(C)CC6)c6ccccc6)o5)CC4)cc3)[nH]2)c2ccccc2)CC1` (some centres unmarked) [compound 359], the EC50 is 1 to 9.9 nM.

Turning to `CC(C)[C@@H](NC(=O)N1CCOCC1)C(=O)N1CCC[C@H]1C(=O)N[C@H]1CC[C@H](c2ccc(-c3cnc([C@@H]4CCCN4C(=O)[C@H](NC(=O)N4CCOCC4)C(C)C)[nH]3)cc2)CC1` [compound 360], the EC50 lay within 10 to 999 nM.

In the case of `CC(C)[C@@H](NC(=O)N1CCOCC1)C(=O)N1CCC[C@H]1C(=O)N[C@H]1CC[C@@H](c2ccc(-c3cnc([C@@H]4CCCN4C(=O)[C@H](NC(=O)N4CCOCC4)C(C)C)[nH]3)cc2)CC1` [compound 361], the EC50 lay in the range of 10 to 999 nM.

Turning to `CC(C)(C)OC(=O)N[C@@H](C(=O)N1CCC[C@H]1C(=O)N[C@H]1CC[C@H](c2cccc(-c3cnc([C@@H]4CCCN4C(=O)[C@H](NC(=O)OC(C)(C)C)c4ccccc4)[nH]3)c2)CC1)c1ccccc1` [compound 362], the EC50 lay within 1 to 9.9 nM.

For `CC(C)(C)OC(=O)N[C@@H](C(=O)N1CCC[C@H]1C(=O)N[C@H]1CC[C@@H](c2cccc(-c3cnc([C@@H]4CCCN4C(=O)[C@H](NC(=O)OC(C)(C)C)c4ccccc4)[nH]3)c2)CC1)c1ccccc1` [compound 363], the EC50 was < 1 nM.

As to `O=C(N[C@H]1CC[C@H](c2cccc(-c3cnc([C@@H]4CCCN4C(=O)[C@H](NC(=O)N4CCOCC4)c4ccccc4)[nH]3)c2)CC1)[C@@H]1CCCN1C(=O)[C@H](NC(=O)N1CCOCC1)c1ccccc1` [compound 364], the EC50 was in the range of 1 to 9.9 nM.

Consider `O=C(N[C@H]1CC[C@@H](c2cccc(-c3cnc([C@@H]4CCCN4C(=O)[C@H](NC(=O)N4CCOCC4)c4ccccc4)[nH]3)c2)CC1)[C@@H]1CCCN1C(=O)[C@H](NC(=O)N1CCOCC1)c1ccccc1` [compound 365], for which the EC50 is 1 to 9.9 nM.

Regarding `CC(C)[C@@H](NC(=O)OC(C)(C)C)C(=O)N1CCC[C@H]1c1ncc(-c2ccc(C3CCC(c4cnc([C@@H]5CCCN5C(=O)[C@H](NC(=O)OC(C)(C)C)C(C)C)[nH]4)CC3)cc2)[nH]1` (some centres unmarked) [compound 366], the EC50 was 10 to 999 nM.

As to `CC(C)(C)OC(=O)N[C@@H](C(=O)N1CCC[C@H]1c1ncc(-c2ccc(C3CCC(c4cnc([C@@H]5CCCN5C(=O)[C@H](NC(=O)OC(C)(C)C)c5ccccc5)[nH]4)CC3)cc2)[nH]1)c1ccccc1` (some centres unmarked) [compound 367], the EC50 was < 1 nM.

As for `CC(C)(C)OC(=O)N[C@@H](C(=O)N1CCC[C@H]1C(=O)NC1CCC(c2ccc(-c3cnc([C@@H]4COCCN4C(=O)[C@H](NC(=O)OC(C)(C)C)c4ccccc4)[nH]3)cc2)CC1)c1ccccc1` (some centres unmarked) [compound 368], the EC50 was < 1 nM.

Regarding `COC(=O)N[C@@H](C(=O)N1CCC[C@H]1c1ncc(-c2ccc([C@H]3CC[C@H](NC(=O)[C@@H]4CCCN4C(=O)[C@H](NC(=O)N4CCOCC4)c4ccccc4)CC3)cc2)[nH]1)c1ccccc1` [compound 369], the EC50 lay in the range of 1 to 9.9 nM.

On to `COC(=O)N[C@@H](C(=O)N1CCC[C@H]1c1ncc(-c2ccc([C@H]3CC[C@@H](NC(=O)[C@@H]4CCCN4C(=O)[C@H](NC(=O)N4CCOCC4)c4ccccc4)CC3)cc2)[nH]1)c1ccccc1` [compound 370], for which the EC50 lay in the range of 1 to 9.9 nM.

In the case of `O=C(N[C@@H](C(=O)N1CCC[C@H]1c1ncc(-c2ccc(C3CCC(c4cnc([C@@H]5CCCN5C(=O)[C@H](NC(=O)C5CC5)c5ccccc5)[nH]4)CC3)cc2)[nH]1)c1ccccc1)C1CC1` (some centres unmarked) [compound 371], the EC50 was < 1 nM.

`O=C(NC1CCC(c2ccc(-c3cnc([C@@H]4COCCN4C(=O)C(NC(=O)N4CCOCC4)c4ccccc4)[nH]3)cc2)CC1)[C@@H]1CCCN1C(=O)C(NC(=O)N1CCOCC1)c1ccccc1` (some centres unmarked) [compound 372]: the EC50 was in the range of 1 to 9.9 nM.

`COC(=O)N[C@@H](C(=O)N1CCC[C@H]1c1ncc(-c2ccc(C3CCC(c4cnc([C@@H]5CCCN5C(=O)[C@H](NC(=O)OC)c5ccccc5)[nH]4)CC3)cc2)[nH]1)c1ccccc1` (some centres unmarked) [compound 373]: the EC50 is < 1 nM.

As to `COC(=O)N[C@H](C(=O)N1CCC[C@H]1c1ncc(-c2ccc(C3CCC(c4cnc([C@@H]5CCCN5C(=O)[C@@H](NC(=O)OC)c5ccccc5)[nH]4)CC3)cc2)[nH]1)c1ccccc1` (some centres unmarked) [compound 374], the EC50 is < 1 nM.

Turning to `COC(=O)N[C@H](Cc1ccccc1)C(=O)N1CCC[C@H]1c1ncc(C2CCC(c3ccc(-c4cnc([C@@H]5CCCN5C(=O)[C@@H](c5ccccc5)N5CCCC5)[nH]4)cc3)CC2)[nH]1` (some centres unmarked) [compound 375], the EC50 is < 1 nM.

In the case of `COC(=O)N[C@@H](C(=O)N1CCC[C@H]1c1ncc(-c2ccc(C3CCC(c4cnc([C@@H]5CCCN5C(=O)[C@@H](c5ccccc5)N(C)C)[nH]4)CC3)cc2)[nH]1)c1ccccc1` (some centres unmarked) [compound 376], the EC50 is < 1 nM.

With `COC(=O)N[C@@H](C(=O)N1CCC[C@H]1c1ncc(C2CCC(c3ccc(-c4cnc([C@@H]5CCCN5C(=O)[C@@H](c5ccccc5)N(C)C)[nH]4)cc3)CC2)[nH]1)c1ccccc1` (some centres unmarked) [compound 377], the EC50 was < 1 nM.

Consider `COC(=O)N[C@@H](C(=O)N1CCC[C@H]1c1ncc(C2CCC(c3ccc(-c4cnc([C@@H]5CCCN5C(=O)[C@@H](c5ccccc5)N5CCOCC5)[nH]4)cc3)CC2)[nH]1)c1ccccc1` (some centres unmarked) [compound 378], for which the EC50 is < 1 nM.

Regarding `COC(=O)N[C@@H](C(=O)N1CCC[C@H]1c1ncc(C2CCC(c3ccc(-c4cnc([C@@H]5CCCN5C(=O)[C@@H](c5ccccc5)N5CCCC5)[nH]4)cc3)CC2)[nH]1)c1ccccc1` (some centres unmarked) [compound 379], the EC50 is < 1 nM.

In the case of `CN(C)[C@@H](C(=O)N1CCC[C@H]1c1ncc(C2CCC(c3ccc(-c4cnc([C@@H]5CCCN5C(=O)[C@H](NC(=O)C5CC5)c5ccccc5)[nH]4)cc3)CC2)[nH]1)c1ccccc1` (some centres unmarked) [compound 380], the EC50 was < 1 nM.

With `COC(=O)N[C@H](C(=O)N1CCC[C@H]1c1ncc(-c2ccc([C@H]3CC[C@H](c4cnc([C@@H]5CCCN5C(=O)[C@@H](NC(=O)OC)C(C)C)[nH]4)CC3)cc2)[nH]1)C(C)C` [compound 381], the EC50 is < 1 nM.

As for `COC(=O)N[C@H](C(=O)N1CCC[C@H]1c1ncc(-c2ccc([C@H]3CC[C@@H](c4cnc([C@@H]5CCCN5C(=O)[C@@H](NC(=O)OC)C(C)C)[nH]4)CC3)cc2)[nH]1)C(C)C` [compound 382], the EC50 is < 1 nM.

Staying with this assay, now noted: Hepatitis C virus, Huh-7, 72 h, read-out: Inhibition of HCV genotype 1b, Table 6, 72 h incubation.
`COC(=O)N[C@H](C(=O)N1CCC[C@H]1c1nc2ccc(-c3ccc4nc([C@@H]5CCCN5C(=O)[C@@H](NC(=O)OC)C(C)C)[nH]c4c3)cc2[nH]1)C(C)C` [Compound 850]: the EC50 was < 1 nM.

Still in this assay, the particulars now being: Hepatitis C virus, Huh-7, 72 h, read-out: Inhibition of HCV genotype 1b, Table 9, 72 h incubation.
For `COC(=O)N[C@@H](C(=O)N1CCC[C@H]1c1nc(-c2ccc(/C=C/c3ccc(-c4cnc([C@@H]5CCCN5C(=O)[C@H](NC(=O)OC)c5ccccc5)[nH]4)cc3)cc2)c[nH]1)c1ccccc1` [Compound 2120], the EC50 is < 1 nM.

The values above are taken from US9120779B2, “Inhibitors of HCV NS5A” (PRESIDIO PHARMACEUTICALS, INC., priority 2008, dated 2015).
